Assay results as given in US6132740A, “Resorcinol derivatives” (Pfizer Inc., priority 1998, dated 2000).
“And” between values parts separate entries of the source, which are not always exact repeats. Equal entries are not always repeated.

Experiments:
black guinea pigs = assay: In vivo depigmentation study in black guinea pigs; design: species or system guinea pig; settings: for depigmentation of skin (in words): 5% in ethanol:propylene glycol 70:30, twice daily, 5 days per week for 4-8 weeks, black or dark brown guinea pigs; for reduction of pigmentation in treated ears (in words) / reversibility of the depigmentation effect (in words) / Depigmentation effect, Δ light reflectance (treated ear - untreated ear), 1 week post-treatment / Depigmentation effect, Δ light reflectance (treated ear - untreated ear), 3-week / Depigmentation effect, Δ light reflectance (treated ear - untreated ear), 6-week / Depigmentation effect, Δ light reflectance (treated ear - untreated ear), 8.5 week: 5% in ethanol:propylene glycol (70:30); for reduction of pigmentation in treated ears (in words) / reversibility of the depigmentation effect (in words): ears of black guinea pigs; for reversibility of the depigmentation effect (in words): after ceasing treatment; for Depigmentation effect, Δ light reflectance (treated ear - untreated ear), 1 week post-treatment / Depigmentation effect, Δ light reflectance (treated ear - untreated ear), 3-week / Depigmentation effect, Δ light reflectance (treated ear - untreated ear), 6-week / Depigmentation effect, Δ light reflectance (treated ear - untreated ear), 8.5 week: topical to ears of black guinea pigs, one value per animal; for Depigmentation effect, Δ light reflectance (treated ear - untreated ear), 3-week / Depigmentation effect, Δ light reflectance (treated ear - untreated ear), 6-week / Depigmentation effect, Δ light reflectance (treated ear - untreated ear), 8.5 week: positive value indicates depigmentation
Method: Black or dark brown guinea pigs with homogeneous skin color can be used in this study. A solution of the test compound of formula I (5% in ethanol:propylene glycol, 70:30) and the vehicle control are applied to the animals twice daily, 5 days per week for 4-8 weeks.
In vivo experiments were carried out to determine the depigmenting effects of 4-cyclohexylresorcinol and 4-cyclopentylresorcinol using the assay described above (in vivo study). Thus, 5% 4-cyclohexylresorcinol and 5% 4-cyclopentylresorcinol, each in ethanol:propylene glycol (70:30), were administered separately to the ears of black guinea pigs. Depigmentation was determined by subtracting the light reflectance of untreated ears from the light reflectance of treated ears.

human tyrosinase = target: T1, human tyrosinase (Homo sapiens, UniProt P14679); assay: Tyrosinase (DOPA oxidase) assay using cell lysate; type: biochemical; settings: SKMEL 188 human melanoma cell lysate, L-DOPA 100 μg/ml, 8 hours, read at 405 nm
T1 construct: endogenous in cells; host or cells: SKMEL 188 human melanoma cell line (licensed from Memorial Sloan-Kettering), lysate
Method: 1. Tyrosinase (DOPA oxidase) Assay Using Cell Lysate:
Human melanoma cell line, SKMEL 188 (licensed from Memorial Sloan-Kettering), is used in the cell lysate assay and the screen. In the assay, compounds and L-dihydroxyphenylalanine (L-DOPA) (100 μg/ml) are incubated with the cell lysates containing human tyrosinase for 8 hours before the plates are read at 405 nm. Potency of the compounds in DOPA oxidase assay is correlated very well with that in tyrosine hydroxylase assay using 3H-tyrosine as a substrate.

T1 sequence (P14679 19-529): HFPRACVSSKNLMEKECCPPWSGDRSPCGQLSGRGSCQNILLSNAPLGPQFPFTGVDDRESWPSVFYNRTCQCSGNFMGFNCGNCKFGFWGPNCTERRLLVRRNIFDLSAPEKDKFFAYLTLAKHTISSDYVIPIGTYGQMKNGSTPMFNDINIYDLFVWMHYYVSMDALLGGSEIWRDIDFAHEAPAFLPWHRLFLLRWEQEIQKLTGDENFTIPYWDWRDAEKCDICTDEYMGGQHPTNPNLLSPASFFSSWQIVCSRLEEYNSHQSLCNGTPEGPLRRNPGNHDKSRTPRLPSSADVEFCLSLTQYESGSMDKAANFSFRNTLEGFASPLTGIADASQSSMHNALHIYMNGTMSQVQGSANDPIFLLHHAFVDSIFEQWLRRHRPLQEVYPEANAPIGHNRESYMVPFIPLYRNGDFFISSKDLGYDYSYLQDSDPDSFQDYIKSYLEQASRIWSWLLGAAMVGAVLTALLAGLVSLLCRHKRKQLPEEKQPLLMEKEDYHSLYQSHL

Oc1ccc(C2CCCCC2)c(O)c1 [4-cyclohexylresorcinol, 4-Cyclohexylresorcinol]
depigmentation of skin (in words) (black guinea pigs): depigmentation of skin was visualized
reduction of pigmentation in treated ears (in words) (black guinea pigs): reduced pigmentation in treated ears starting 3 weeks after initial treatment
reversibility of the depigmentation effect (in words) (black guinea pigs): reversible, and repigmentation partially resumed one week after ceasing treatment
Depigmentation effect, Δ light reflectance (treated ear - untreated ear), 1 week post-treatment (black guinea pigs): 1 and 0
Depigmentation effect, Δ light reflectance (treated ear - untreated ear), 3-week (black guinea pigs): 13 and 0 and 14 and 3
Depigmentation effect, Δ light reflectance (treated ear - untreated ear), 6-week (black guinea pigs): 8 and 0 and 14 and 7
Depigmentation effect, Δ light reflectance (treated ear - untreated ear), 8.5 week (black guinea pigs): 6 and 7 and 19
IC50 (human tyrosinase): 300 nM

Oc1ccc(C2CCCC2)c(O)c1 [4-cyclopentylresorcinol, 4-Cyclopentylresorcinol]
depigmentation of skin (in words) (black guinea pigs): depigmentation of skin was visualized
reduction of pigmentation in treated ears (in words) (black guinea pigs): reduced pigmentation in treated ears starting 3 weeks after initial treatment
reversibility of the depigmentation effect (in words) (black guinea pigs): reversible, and repigmentation partially resumed one week after ceasing treatment
Depigmentation effect, Δ light reflectance (treated ear - untreated ear), 1 week post-treatment (black guinea pigs): 6
Depigmentation effect, Δ light reflectance (treated ear - untreated ear), 3-week (black guinea pigs): 15 and 9 and 4
Depigmentation effect, Δ light reflectance (treated ear - untreated ear), 6-week (black guinea pigs): 12 and 9
Depigmentation effect, Δ light reflectance (treated ear - untreated ear), 8.5 week (black guinea pigs): 10 and 18 and 7
